Laboratory results taken from ChEMBL document CHEMBL5335775, “Bioisosteric replacement of 1H-1,2,3-triazole with 1H-tetrazole ring enhances anti-leukemic activity of (5-benzylthiazol-2-yl)benzamides” (Eur J Med Chem, 2023).
Activity calls are given as the source filed them. No cut-off for these calls is given here.

How the values were obtained:
Hep 3B2 = test: Antiproliferative activity against human Hep3B cells assessed as inhibition of cell proliferation; format: functional, cell-based
KM12 [1] = test: Anticancer activity against human KM12 cells assessed as cell growth at 10^-5 M incubated for 48 hrs by SRB assay relative to control; format: functional; details: KM12, 48 h, dose 1 10^-5M, read-out: Activity
NCI/ADR-RES [2] = test: Anticancer activity against human NCI/ADR-RES cells assessed as cell growth at 10^-5 M incubated for 48 hrs by SRB assay relative to control; format: functional; details: dose 1 10^-5M, read-out: Activity
[3] = Antiproliferative activity against human HaCaT cells assessed as inhibition of cell proliferation measured after 72 hrs by MTT assay; format: toxicity, cell-based
K562 [4] = test: Anticancer activity against human K562 cells assessed as cell growth at 10^-5 M incubated for 48 hrs by SRB assay relative to control; format: functional; details: K562, 48 h, dose 1 10^-5M, read-out: Activity
MOLT-4 = test: Anticancer activity against human MOLT-4 cells assessed as cell growth at 10^-5 M incubated for 48 hrs by SRB assay relative to control; format: functional; details: MOLT-4, 48 h, dose 1 10^-5M, read-out: Activity
A549 = test: Anticancer activity against human A549 cells assessed as cell growth at 10^-5 M incubated for 48 hrs by SRB assay relative to control; format: functional; details: A549, 48 h, dose 1 10^-5M, read-out: Activity
HCT-15 = test: Anticancer activity against human HCT-15 cells assessed as cell growth at 10^-5 M incubated for 48 hrs by SRB assay relative to control; format: functional; details: HCT-15, 48 h, dose 1 10^-5M, read-out: Activity
UACC-62 [5] = test: Anticancer activity against human UACC-62 cells assessed as cell growth at 10^-5 M incubated for 48 hrs by SRB assay relative to control; format: functional; details: UACC-62, 48 h, dose 1 10^-5M, read-out: Activity
SF-295 = test: Anticancer activity against human SF-295 cells assessed as cell growth at 10^-5 M incubated for 48 hrs by SRB assay relative to control; format: functional; details: SF-295, 48 h, dose 1 10^-5M, read-out: Activity
[6] = Selectivity index, ratio of IC50 for […] to IC50 for human K562 cells; format: functional
MCF7 = test: Anticancer activity against human MCF7 cells assessed as cell growth at 10^-5 M incubated for 48 hrs by SRB assay relative to control; format: functional; details: MCF7, 48 h, dose 1 10^-5M, read-out: Activity
OVCAR-4 [7] = test: Anticancer activity against human OVCAR-4 cells assessed as cell growth at 10^-5 M incubated for 48 hrs by SRB assay relative to control; format: functional; details: OVCAR-4, 48 h, dose 1 10^-5M, read-out: Activity
MDA-MB-468 [8] = test: Anticancer activity against human MDA-MB-468 cells assessed as cell growth at 10^-5 M incubated for 48 hrs by SRB assay relative to control; format: functional; details: MDA-MB-468, 48 h, dose 1 10^-5M, read-out: Activity
[9] = Antiproliferative activity against J774.2 cells assessed as inhibition of cell proliferation measured after 72 hrs by MTT assay; format: toxicity, cell-based; details: mouse
NCI-H460 = test: Anticancer activity against human NCI-H460 cells assessed as cell growth at 10^-5 M incubated for 48 hrs by SRB assay relative to control; format: functional; details: NCI-H460, 48 h, dose 1 10^-5M, read-out: Activity
K562 [10] = test: Antiproliferative activity against human K562 cells assessed as inhibition of cell proliferation measured after 72 hrs by MTT assay; format: functional, cell-based; details: K562, 72 h
SK-MEL-5 [11] = test: Anticancer activity against human SK-MEL-5 cells assessed as cell growth at 10^-5 M incubated for 48 hrs by SRB assay relative to control; format: functional; details: SK-MEL-5, 48 h, dose 1 10^-5M, read-out: Activity
MDA-MB-435 = test: Anticancer activity against human MDA-MB-435 cells assessed as cell growth at 10^-5 M incubated for 48 hrs by SRB assay relative to control; format: functional; details: MDA-MB-435, 48 h, dose 1 10^-5M, read-out: Activity
CAKI-1 [12] = test: Anticancer activity against human CAKI-1 cells assessed as cell growth at 10^-5 M incubated for 48 hrs by SRB assay relative to control; format: functional; details: CAKI-1, 48 h, dose 1 10^-5M, read-out: Activity
[13] = Antiproliferative activity against NIH3T3 cells assessed as inhibition of cell proliferation measured after 72 hrs by MTT assay; format: toxicity, cell-based; details: mouse
ACHN = test: Anticancer activity against human ACHN cells assessed as cell growth at 10^-5 M incubated for 48 hrs by SRB assay relative to control; format: functional; details: dose 1 10^-5M, read-out: Activity
K562 [14] = test: Induction of DNA damage in human K562 cells assessed as olive tail moment level at 700 nM incubated for 24 hrs by comet assay (reference value: 0.2); format: functional
K562 [15] = test: Induction of DNA damage in human K562 cells assessed as olive tail moment level at 70 nM incubated for 24 hrs by comet assay (reference value: 0.2); format: functional
K562 [16] = test: Induction of DNA damage in human K562 cells assessed as tail DNA level at 70 nM incubated for 24 hrs by comet assay (reference value: 0.5 to 0.6 %); format: functional
K562 [17] = test: Induction of DNA damage in human K562 cells assessed as tail DNA level at 700 nM incubated for 24 hrs by comet assay (reference value: 0.5 to 0.6 %); format: functional
K562 [18] = test: Induction of pro-apoptotic morphological changes in human K562 cells at 70 to 700 nM incubated for 24 hrs by Hoescht-33342 staining based analysis; format: functional, cell-based; details: dose 70-700 nM
UACC-62 [19] = test: Antiproliferative activity against human UACC-62 cells assessed as inhibition of cell proliferation measured after 48 hrs by SRB assay; format: functional, cell-based; details: UACC-62, 48 h
BT-549 = test: Antiproliferative activity against human BT-549 cells assessed as inhibition of cell proliferation measured after 48 hrs by SRB assay; format: functional, cell-based; details: BT-549, 48 h
SK-MEL-5 [20] = test: Antiproliferative activity against human SK-MEL-5 cells assessed as inhibition of cell proliferation measured after 48 hrs by SRB assay; format: functional, cell-based; details: SK-MEL-5, 48 h
OVCAR-4 [21] = test: Antiproliferative activity against human OVCAR-4 cells assessed as inhibition of cell proliferation measured after 48 hrs by SRB assay; format: functional, cell-based; details: OVCAR-4, 48 h
NCI/ADR-RES [22] = test: Antiproliferative activity against human NCI-ADR-RES cells assessed as inhibition of cell proliferation measured after 48 hrs by SRB assay; format: functional, cell-based
MDA-MB-468 [23] = test: Antiproliferative activity against human MDA-MB-468 cells assessed as inhibition of cell proliferation measured after 48 hrs by SRB assay; format: functional, cell-based; details: MDA-MB-468, 48 h
PC-3 = test: Antiproliferative activity against human PC-3 cells assessed as inhibition of cell proliferation measured after 48 hrs by SRB assay; format: functional, cell-based; details: PC-3, 48 h
CAKI-1 [24] = test: Antiproliferative activity against human CAKI-1 cells assessed as inhibition of cell proliferation measured after 48 hrs by SRB assay; format: functional, cell-based; details: CAKI-1, 48 h
KM12 [25] = test: Antiproliferative activity against human KM12 cells assessed as inhibition of cell proliferation measured after 48 hrs by SRB assay; format: functional, cell-based; details: KM12, 48 h
LOX IMVI = test: Anticancer activity against human LOX IMVI cells assessed as cell growth at 10^-5 M incubated for 48 hrs by SRB assay relative to control; format: functional; details: dose 1 10^-5M, read-out: Activity
M14 = test: Anticancer activity against human M14 cells assessed as cell growth at 10^-5 M incubated for 48 hrs by SRB assay relative to control; format: functional; details: M14, 48 h, dose 1 10^-5M, read-out: Activity

O=C(CCc1ccco1)Nc1ncc(Cc2ccccc2)s1
IC50 (Hep 3B2): 0.089 µM

O=C(Nc1ncc(Cc2cccc(C(F)(F)F)c2)s1)c1ccc(-n2cnnn2)cc1
growth at 10 µM (KM12 [1]): 28.8%
growth at 10 µM (NCI/ADR-RES [2]): 35.9%
IC50 at 72 h [3]: > 100 µM
growth at 10 µM (K562 [4]): 21%
growth at 10 µM (MOLT-4): 39.4%
growth at 10 µM (A549): 34.4%
growth at 10 µM (HCT-15): 38.7%
growth at 10 µM (UACC-62 [5]): 19.8%
growth at 10 µM (SF-295): 32.2%
Ratio IC50 [6]: 1.8
growth at 10 µM (MCF7): 28.7%
growth at 10 µM (OVCAR-4 [7]): 33.6%
growth at 10 µM (MDA-MB-468 [8]): 16.7%
IC50 at 72 h [9]: 43.2 µM
growth at 10 µM (NCI-H460): 30.5%
IC50 (K562 [10]): 23.7 µM
growth at 10 µM (SK-MEL-5 [11]): 37.8%
growth at 10 µM (MDA-MB-435): 24%
growth at 10 µM (CAKI-1 [12]): 30.1%
IC50 at 72 h [13]: > 100 µM
growth at 10 µM (ACHN): 32%

COc1cccc2c1C(=O)c1c(O)c3c(c(O)c1C2=O)C[C@@](O)(C(=O)CO)C[C@@H]3O[C@H]1C[C@H](N)[C@H](O)[C@H](C)O1 [DOXORUBICIN]
IC50 at 72 h [3]: 0.86 µM
Activity (K562 [14]): 1
Activity (K562 [15]): 0.4
Activity (K562 [16]): 0.7%
Activity (K562 [17]): 3.5%
Activity (K562 [18]): inactive
IC50 at 72 h [9]: 0.64 µM
IC50 at 72 h [13]: 0.79 µM

Cc1cnnn1-c1ccc(C(=O)Nc2ncc(Cc3ccccc3)s2)cc1
IC50 (UACC-62 [19]): 3.28 µM
IC50 (BT-549): 3.99 µM
IC50 (SK-MEL-5 [20]): 2.8 µM
IC50 (OVCAR-4 [21]): 3.02 µM
IC50 (NCI/ADR-RES [22]): 4.06 µM
IC50 (MDA-MB-468 [23]): 2.02 µM
IC50 (PC-3): 4.26 µM
IC50 (CAKI-1 [24]): 4.7 µM
IC50 (KM12 [25]): 3.68 µM

Cc1cccc(Cc2cnc(NC(=O)c3ccc(-n4cnnn4)cc3)s2)c1
growth at 10 µM (KM12 [1]): 30.2%
IC50 at 72 h [3]: > 100 µM
growth at 10 µM (K562 [4]): 19.2%
growth at 10 µM (LOX IMVI): 30.1%
growth at 10 µM (HCT-15): 34.6%
growth at 10 µM (UACC-62 [5]): 12%
Ratio IC50 [6]: 2.1
growth at 10 µM (MCF7): 30.5%
growth at 10 µM (MDA-MB-468 [8]): 34.2%
IC50 at 72 h [9]: 43.2 µM
growth at 10 µM (NCI-H460): 25.8%
IC50 (K562 [10]): 20.1 µM
growth at 10 µM (MDA-MB-435): 27.7%
growth at 10 µM (CAKI-1 [12]): 35.2%
IC50 at 72 h [13]: > 100 µM
growth at 10 µM (M14): 33.8%
growth at 10 µM (ACHN): 30.7%

CC(C)c1nnnn1-c1ccc(C(=O)Nc2ncc(Cc3ccccc3)s2)cc1
IC50 at 72 h [3]: 5.59 µM
IC50 at 72 h [9]: 8.94 µM
IC50 (K562 [10]): > 100 µM
IC50 at 72 h [13]: > 100 µM

Cc1nnnn1-c1ccc(C(=O)Nc2ncc(Cc3ccccc3)s2)cc1
IC50 at 72 h [3]: 6 µM
IC50 at 72 h [9]: 3.61 µM
IC50 (K562 [10]): > 100 µM
IC50 at 72 h [13]: > 100 µM

O=C(Nc1ncc(Cc2ccccc2)s1)c1ccc(-n2cnnn2)cc1O
IC50 at 72 h [3]: > 100 µM
IC50 at 72 h [9]: 22.2 µM
IC50 (K562 [10]): > 100 µM
IC50 at 72 h [13]: > 100 µM
